Drawing on ChEMBL document CHEMBL3046899, “2D-QSAR of non-benzodiazepines to benzodiazepines receptor (BZR)” (Med Chem Res, 2009), this text covers pIC50 for 23 molecules.

The first test has as its target GABA-A receptor; anion channel. The test is described as follows: Binding affinity to Rattus norvegicus (rat) brain GABA-A receptor benzodiazepine site.
On to `CNc1nc2c(N(C)C)ncnc2n1Cc1cccc(C)c1`, for which the pIC50 was 5.14.

The target in a further test is GABA-A receptor; anion channel. In words: Displacement of [3H]flunitrazepam from Rattus norvegicus (rat) brain GABA-A receptor benzodiazepine site.
`CCCc1c(OC)nc2nc(C(=O)c3ccccc3)cn2c1CC` registered a negative logarithm of the IC50 (pIC50) of 7.328.
The same measure, in the same setting: next, `CCc1c(OC)nc2nc(C(=O)c3ccccc3)cn2c1CC`: 7.252.

Biological target in the next test: not listed separately
In words: Binding affinity to GABA-A receptor benzodiazepine site (unknown origin). Also noted: species or system Homo sapiens.
The molecule `CCOC(=O)c1ncc2[nH]c3ccc(OCc4ccccc4)cc3c2c1COC` displayed a pIC50 of 9.
Same read-out and setting: for `Nc1cc2c(cn1)[nH]c1ccccc12` the value was 4.6; for `S=C=Nc1cc2c(cn1)[nH]c1ccccc12`, 8.1.
Still for that read-out and setting: for `CC(=O)C(=O)c1cc2c(cn1)[nH]c1ccccc12` the value was 8; for `Oc1cc2c(cn1)[nH]c1ccccc12`, 5.4; for `CCOC(=O)c1cc2c(cn1)[nH]c1ccccc12`, 8.3.
`CCc1nc(C(=O)OC)cc2c1[nH]c1ccccc12` yielded a negative-log IC50 (pIC50) of 5.12.
For `CC(C)(C)COC(=O)c1cc2c(cn1)[nH]c1ccccc12`, the negative-log IC50 (pIC50) is listed as 6.12.
The same measure, in the same setting: next, `CC(C)Oc1cc2c(cn1)[nH]c1ccccc12`: 6.29; `CCCCOc1cc2c(cn1)[nH]c1ccccc12`: 7.01; `O=[N+]([O-])c1cc2c(cn1)[nH]c1ccccc12`: 6.9.
Same read-out and setting: for `COc1cc2c(cn1)[nH]c1ccccc12` the value was 6.91.
For the molecule `Clc1cc2c(cn1)[nH]c1ccccc12`, the pIC50 was 7.35.
Still for that read-out and setting: next, `CCOc1cc2c(cn1)[nH]c1ccccc12`: 7.62; `CCCOc1cc2c(cn1)[nH]c1ccccc12`: 7.96.
For the molecule `CCCC(=O)c1cc2c(cn1)[nH]c1ccccc12`, the pIC50 is given as 7.64.
`CCCCc1cc2c(cn1)[nH]c1ccccc12` came in with a pIC50 of 6.64.
Regarding `COC(=O)c1cc2c(cn1)[nH]c1ccccc12` [BETA-CCM], the pIC50 stood at 8.3.
On the same count and under the same terms, next, `Cc1nccc2c1[nH]c1ccccc12` [HARMAN]: 4.91; `c1ccc2c(c1)[nH]c1cnccc12` [NORHARMANE]: 5.79.
